The values below come from ChEMBL document CHEMBL1124124, “Synthesis and interaction with uridine phosphorylase of 5'-deoxy-4',5-difluorouridine, a new prodrug of 5-fluorouracil” (J Med Chem, 1988).

Series [1] can be described thus: Half life at pH 1. Type of series: ADME. Particulars: buffer.
Series [2] is described as follows: Half life at pH 7.5. The class given is ADME. Particulars: buffer.
For series [3], the system named is L1210. Put plainly: Inhibition of cell growth of L1210 mouse Leukemia cells. Type of series: functional, cell-based.
Series [4] is described as follows: Half life at pH 7.5; Not detectable hydrolysis after 7 days. The class given is ADME. Conditions: buffer, pH 7.5, 168 h.

As usually defined, the half-life is the time in which the quantity being followed falls by half. Lower therefore signals fast loss. The term IC50 denotes the concentration needed to halve the response being measured. Low values mean greater potency, high ones weaker potency.

Turning to `C[C@@]1(F)OC(n2cc(F)c(=O)[nH]c2=O)[C@H](O)[C@@H]1O` (some centres not stated), the half-life in series [1] is 0.5 h; in series [2], 12 h. The compound further came in with a half-maximal inhibitory concentration (IC50) in series [3] of 300 nM.

As for `C[C@H]1O[C@@H](n2cc(F)c(=O)[nH]c2=O)[C@H](O)[C@@H]1O` [DOXIFLURIDINE], the half-life in series [1] was 250 h. Moreover, the T1/2 result in series [4] was “No detectable hydrolysis”. Moreover, the concentration for half-maximal inhibition (IC50) in series [3] is 3000 nM.

Take `O=c1[nH]cc(F)c(=O)[nH]1` [FLUOROURACIL]: it took 300 nM to reach half-maximal inhibition in series [3] (IC50). This lies in the sub-micromolar range.
